Data from US20210177803A1, “NEW PHARMACEUTICAL USE FOR THE TREATMENT OF HEART FAILURE” (Novartis AG, priority 2018, published 2021).
Read-outs that look alike come from different tables or passages of the source.

Legend:
NT-proBNP = system: NT-proBNP
Protocol: The study rational and design is described in by Velazquez E J, et al. .in Am.
(§1) The starting dose and all subsequent doses were selected to optimize the highest tolerated dose based on a systolic blood pressure (SBP) algorithm.
(§2) Inclusion Criteria: • Patients ≥18 y of age with the capacity to provide written informed consent. • Currently hospitalized for a primary diagnosis of HF, including symptoms and signs of fluid overload. • Eligible patients will be randomized no earlier than 24 hours and up to ten days after presentation while still hospitalized as long as meet the following definition of stable status: • SBP≥100 mm Hg for the preceding 6 hours prior to randomization; no symptomatic hypotension • No increase (intensification) in i.v. diuretic dose within last 6 hours prior to randomization • No i.v. inotropic drugs for 24 hours prior to randomization • No i.v. vasodilators including nitrates within last 6 hours prior to randomization • Left ventricular EF 40% within the past 6 m (including current hospitalization) using echocardiography, multi gated acquisition scan (MUGA), CT scanning, MRI or ventricular angiography, provided no subsequent study documented an EF of >40% • Elevated NT-proBNP≥1600 pg/mL OR BNP≥400 pg/mL during current hospitalization.

neprilysin = neprilysin (Homo sapiens, UniProt P08473); details: 200 mg LCZ696 b.i.d.; cited from earlier work
[1] = system: patients hospitalized for acute HFrEF
Protocol: as §1, §2

[2] = system: patients with HFrEF following hemodynamic stabilization after an episode of ADHF; details: for Proportion of patients achieving the target dose of 200 mg LCZ696 b.i.d.: 10 weeks after randomization; for Odds ratio (OR) for up-titration success to 200 mg b.i.d.: multivariate logistic regression
Text: The study design comprises three Epochs (phases): the Screening Epoch; the Treatment Epoch defined as 10 weeks after Randomization; and 16-week Follow-up Epoch. Patients were stratified into three groups based on their pre-admission treatment status: (a) receiving an angiotensin-converting enzyme inhibitor (ACEI), (b) receiving an angiotensin receptor blocker (ARB), or (c) ACEI/ARB-naïve patients.
The study population consists of patients hospitalized for an episode of acute decompensation of heart failure who are diagnosed with CHF NYHA class II-to-IV and reduced ejection fraction (LVEF 40%). Patients can be either with first presentation (de novo), or acute decompensation of HF due to deterioration in patients with a prior history of (chronic) HF.
Inclusion Criteria: • 1. Patients hospitalized due to acute decompensated HF episode (ADHF) as primary diagnosis) and consistent Signs and Symptoms. • 2. Diagnosis of HF New York Heart Association class II-to-IV and reduced ejection fraction: Left ventricular ejection fraction 40% at Screening. • 3. […] Stabilized (while in the hospital) for at least 24 h leading to Randomization defined as: • No need for IV diuretics in the past 24 h prior to signing ICF • Systolic blood pressure (SBP) 110 mm Hg for at least 6 h prior to Randomization • 5. Meeting one of the following criteria: • Patients on any dose of ACEI or ARB at screening • ACEI/ARB naïve patients and patients not on ACEI or ARB for at least 4 weeks before screening.
The basis for up-titration toward the target dose was taking into consideration tolerability (i.e., incidence of hypotension, renal or hepatic impairment and hyperkalemia) based on clinical evaluation and laboratory assessment.

Chain of neprilysin (P08473 whole entry): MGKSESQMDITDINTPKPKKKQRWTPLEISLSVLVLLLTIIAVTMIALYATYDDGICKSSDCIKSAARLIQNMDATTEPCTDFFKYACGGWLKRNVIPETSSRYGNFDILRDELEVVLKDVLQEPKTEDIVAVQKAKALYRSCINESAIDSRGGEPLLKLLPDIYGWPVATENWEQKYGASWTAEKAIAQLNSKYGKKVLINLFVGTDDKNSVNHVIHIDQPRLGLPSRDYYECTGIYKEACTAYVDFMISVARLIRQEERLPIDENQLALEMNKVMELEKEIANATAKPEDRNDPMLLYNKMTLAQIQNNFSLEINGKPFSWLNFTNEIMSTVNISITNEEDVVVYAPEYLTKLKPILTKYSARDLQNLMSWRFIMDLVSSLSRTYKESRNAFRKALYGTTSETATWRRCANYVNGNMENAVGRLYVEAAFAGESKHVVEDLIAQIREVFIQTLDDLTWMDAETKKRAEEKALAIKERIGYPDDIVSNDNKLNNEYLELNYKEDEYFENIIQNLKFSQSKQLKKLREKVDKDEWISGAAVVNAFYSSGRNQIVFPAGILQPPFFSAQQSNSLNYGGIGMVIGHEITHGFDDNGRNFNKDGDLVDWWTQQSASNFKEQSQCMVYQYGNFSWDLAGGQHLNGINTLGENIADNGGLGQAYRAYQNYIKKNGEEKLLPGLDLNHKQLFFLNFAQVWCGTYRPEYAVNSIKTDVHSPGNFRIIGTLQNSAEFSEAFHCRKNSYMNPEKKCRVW

## CCCCC(=O)N(Cc1ccc(-c2ccccc2-c2nn[n-]n2)cc1)[C@H](C(=O)[O-])C(C)C.CCOC(=O)[C@H](C)C[C@@H](Cc1ccc(-c2ccccc2)cc1)NC(=O)CCC(=O)[O-].[Na+].[Na+].[Na+] [LCZ696, trisodium [3((1S,3R)-1-biphenyl-4-ylmethyl-3-ethoxycarbonyl-1-butylcarbamoyl) propionate-(S)-3′-methyl-2′-(pentanoyl{2″-(tetrazol-5-ylate)biphenyl-4′-ylmethyl}amino)butyrate]hemipentahydrate]
NT-proBNP; LCZ696 vs. Enalapril
  Ratio of time-averaged change in NT-proBNP from baseline to the geometric mean of weeks 4 and 8: 0.71
NT-proBNP; LCZ696 vs. enalapril, week 1
  Ratio of change in NT-proBNP from baseline: 0.76
neprilysin
  Share of maximal neprilysin inhibition delivered: approximately 90%
[1]; 8 weeks
  Hyperkalemia: 11.6%
  Symptomatic hypotension: 10.0%
  Worsening renal function: 13.6%
[1]; LCZ696 vs. Enalapril
  Angioedema, HR: 0.17
  Hyperkalemia, HR: 1.25
  Symptomatic hypotension, HR: 1.10
  Worsening renal function, HR: 0.93
[1]
  Angioedema in patients who identified as black (in words): no angioedema
[1]; listed as sacubitril-valsartan
  Angioedema in patients who identified as black (in words): no cases
[1]; blinded adjudication
  Angioedema events (number in words): one
[1]; blinded adjudication, 8 weeks
  Angioedema: 0.2%
[1]; by the week 8 study visit
  Patients in whom the maximum target dose had been achieved: 56%
[1]; excluding discontinuation due to death
  Study drug prematurely discontinued prior to 8 weeks: 19.6%
[1]; initiated after initial stabilization after an ADHF episode
  Tolerability (in words): well tolerated
[2]; ACEI or ARB strata compared to naive
  Relative RR, primary endpoint (target dose 200 mg b.i.d.): 1.01
[2]; ACEI/ARB naïve patients
  Patients who achieved the target dose: 48.3%
[2]; ACEI/ARB naïve vs prior ACEI/ARB use
  RRR, achieved target dose: 1.008
[2]; both groups
  Patients who achieved and maintained any dose of LCZ696 for at least 2 weeks leading to week 10: More than 86%
[2]; both groups (ACEI/ARB naïve and not naïve)
  Subjects maintained on any dose at week 10: 88%
[2]; de novo HF patients
  Patients able to achieve and maintain any dose at week 10: 90%
  Patients who achieved the target dose: 56.0%
[2]; de novo HF vs prior HF diagnosis
  RRR, achieved target dose: 1.30
[2]; in-hospital or shortly after discharge
  Feasibility and tolerability of early initiation (in words): feasible and overall well tolerated
[2]; post-discharge arm
  Proportion of patients achieving the target dose of 200 mg LCZ696 b.i.d.: 50.4%
[2]; post-discharge initiation
  Patients who achieved and maintained any dose of LCZ696 for at least 2 weeks leading to week 10: 88.8%
  Patients who achieved and maintained either 100 mg b.i.d. or 200 mg b.i.d. for at least 2 weeks leading to week 10: 68%
[2]; pre- vs post-discharge
  RRR, achieved and maintained 100 mg or 200 mg b.i.d.: 0.919
  RRR, achieved and maintained any dose: 0.973
[2]; pre- vs post-discharge, 10 weeks
  Relative risk ratio (RRR), achieving target dose 200 mg b.i.d.: 0.893
[2]; pre-discharge arm
  Proportion of patients achieving the target dose of 200 mg LCZ696 b.i.d.: 45.0%
[2]; pre-discharge initiation
  Patients who achieved and maintained any dose of LCZ696 for at least 2 weeks leading to week 10: 86.4%
  Patients who achieved and maintained either 100 mg b.i.d. or 200 mg b.i.d. for at least 2 weeks leading to week 10: 62.5%
[2]; predictor: assignment to pre- or post-discharge initiation
  Odds ratio (OR) for up-titration success to 200 mg b.i.d.: 1.21
[2]; predictor: prior use of an ACEI or ARB
  Odds ratio (OR) for up-titration success to 200 mg b.i.d.: 1.04
[2]; subjects with a prior HF diagnosis
  Patients who achieved the target dose: 44.8%
[2]; subjects with prior ACEI/ARB use
  Patients who achieved the target dose: 47.9%
